Assay results: PubChem BioAssay (NCI)
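Growth conditions: 96-well plates. Treatment: test compound, 48 hours, 5 concentrations. Analysis: linear interpolation between bracketing concentrations; unreached endpoints set to highest concentration. Here, GI50 denotes the concentration required for 50% inhibition of growth. The concentration for full growth arrest is given as TGI.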

Columns and labels:
Assay in all cases: growth of human tumour cells (NCI), 48 h; in the data active = GI50 below about 0.43 µM; inactive = the rest
HL-60(TB) leukemia = system: HL-60(TB) leukemia
BT-549 breast = system: BT-549 breast
HOP-62 NSCLC = system: HOP-62 NSCLC
HOP-92 NSCLC = system: HOP-92 NSCLC
NCI-H226 lung = system: NCI-H226 lung
HCT-15 colon = system: HCT-15 colon
CAKI-1 renal = system: CAKI-1 renal
LOX IMVI melanoma = system: LOX IMVI melanoma
UACC-62 melanoma = system: UACC-62 melanoma
UO-31 renal = system: UO-31 renal
SR leukemia = system: SR leukemia
SF-539 CNS = system: SF-539 CNS
MOLT-4 leukemia = system: MOLT-4 leukemia
SF-295 CNS = system: SF-295 CNS
OVCAR-3 ovarian = system: OVCAR-3 ovarian
NCI-H460 lung = system: NCI-H460 lung
RXF 393 renal = system: RXF 393 renal
DU-145 prostate = system: DU-145 prostate
SK-MEL-28 melanoma = system: SK-MEL-28 melanoma
HCT-116 colon = system: HCT-116 colon
ACHN renal = system: ACHN renal
HT29 colon = system: HT29 colon
T-47D breast = system: T-47D breast
SW-620 colon = system: SW-620 colon
SNB-19 CNS = system: SNB-19 CNS
A498 renal = system: A498 renal
CCRF-CEM leukemia = system: CCRF-CEM leukemia
NCI/ADR-RES ovarian = system: NCI/ADR-RES ovarian
OVCAR-8 ovarian = system: OVCAR-8 ovarian
MDA-MB-435 = system: MDA-MB-435
HCC-2998 colon = system: HCC-2998 colon
SK-MEL-5 melanoma = system: SK-MEL-5 melanoma
COLO 205 colon = system: COLO 205 colon
SN12C renal = system: SN12C renal
UACC-257 melanoma = system: UACC-257 melanoma
K-562 leukemia = system: K-562 leukemia
NCI-H522 lung = system: NCI-H522 lung
U251 CNS = system: U251 CNS
SK-MEL-2 melanoma = system: SK-MEL-2 melanoma
OVCAR-4 ovarian = system: OVCAR-4 ovarian
IGROV1 ovarian = system: IGROV1 ovarian
MCF7 breast = system: MCF7 breast
MDA-MB-231 breast = system: MDA-MB-231 breast
EKVX NSCLC = system: EKVX NSCLC
PC-3 prostate = system: PC-3 prostate
NCI-H23 lung = system: NCI-H23 lung
MALME-3M melanoma = system: MALME-3M melanoma
KM12 colon = system: KM12 colon
RPMI-8226 leukemia = system: RPMI-8226 leukemia
786-0 renal = system: 786-0 renal
SNB-75 CNS = system: SNB-75 CNS
TK-10 renal = system: TK-10 renal
HS 578T breast = system: HS 578T breast
OVCAR-5 ovarian = system: OVCAR-5 ovarian
SF-268 CNS = system: SF-268 CNS
M14 melanoma = system: M14 melanoma
A549 NSCLC = system: A549 NSCLC

COc1ccc2c(c1)C(=O)c1c-2c(Nc2ccc(C(C)=O)cc2)nc2ccccc12
inactive: GI50 (HL-60(TB) leukemia) > 100 µM | GI50 (BT-549 breast) 17.7 µM | GI50 (HOP-62 NSCLC) 3.96 µM | GI50 (HOP-92 NSCLC) 24 µM | GI50 (NCI-H226 lung) 38.3 µM | GI50 (HCT-15 colon) > 100 µM | GI50 (CAKI-1 renal) > 100 µM | GI50 (LOX IMVI melanoma) 54.7 µM | GI50 (UACC-62 melanoma) 21.9 µM | GI50 (UO-31 renal) > 100 µM | GI50 (SR leukemia) 55.7 µM | GI50 (SF-539 CNS) 15.5 µM | GI50 (MOLT-4 leukemia) > 100 µM | GI50 (SF-295 CNS) 33.8 µM | GI50 (OVCAR-3 ovarian) > 100 µM | GI50 (NCI-H460 lung) 85.1 µM | GI50 (RXF 393 renal) 2.54 µM | GI50 (DU-145 prostate) 29 µM | GI50 (SK-MEL-28 melanoma) 52.2 µM | GI50 (HCT-116 colon) 4.17 µM | GI50 (ACHN renal) 53.5 µM | GI50 (HT29 colon) 43.7 µM | GI50 (T-47D breast) 77.2 µM | GI50 (SW-620 colon) > 100 µM | GI50 (SNB-19 CNS) 14.5 µM | GI50 (A498 renal) 35.2 µM | GI50 (CCRF-CEM leukemia) > 100 µM | GI50 (NCI/ADR-RES ovarian) 41.7 µM | GI50 (OVCAR-8 ovarian) 18 µM | GI50 (MDA-MB-435) > 100 µM | GI50 (HCC-2998 colon) 97.1 µM | GI50 (SK-MEL-5 melanoma) 48.3 µM | GI50 (COLO 205 colon) > 100 µM | GI50 (SN12C renal) 33.4 µM | GI50 (UACC-257 melanoma) 91.1 µM | GI50 (K-562 leukemia) > 100 µM | GI50 (NCI-H522 lung) 30.3 µM | GI50 (U251 CNS) 13.5 µM | GI50 (SK-MEL-2 melanoma) 97.7 µM | GI50 (OVCAR-4 ovarian) 58.3 µM | GI50 (IGROV1 ovarian) 22.9 µM | GI50 (MCF7 breast) 64.7 µM | GI50 (MDA-MB-231 breast) 11.4 µM | GI50 (EKVX NSCLC) 25.2 µM | GI50 (PC-3 prostate) 34.3 µM | GI50 (NCI-H23 lung) 18 µM | GI50 (MALME-3M melanoma) 49.6 µM | GI50 (KM12 colon) > 100 µM | GI50 (RPMI-8226 leukemia) 89.5 µM | GI50 (786-0 renal) 12.3 µM | GI50 (SNB-75 CNS) 26.1 µM | GI50 (TK-10 renal) 40.1 µM | GI50 (HS 578T breast) 8.39 µM | GI50 (OVCAR-5 ovarian) 29.6 µM | GI50 (SF-268 CNS) 58.7 µM | GI50 (M14 melanoma) 64.6 µM | GI50 (A549 NSCLC) 37.2 µM
40.6 µM: TGI (U251 CNS)
64.9 µM: TGI (OVCAR-8 ovarian)
16.2 µM: TGI (HOP-62 NSCLC)
92.8 µM: TGI (IGROV1 ovarian)
9.2 µM: TGI (RXF 393 renal)
73.7 µM: TGI (HOP-92 NSCLC)
78.3 µM: TGI (BT-549 breast)
37.3 µM: TGI (SNB-19 CNS)
> 100 µM: TGI (HL-60(TB) leukemia) | TGI (NCI-H226 lung) | TGI (HCT-15 colon) | TGI (CAKI-1 renal) | TGI (LOX IMVI melanoma) | TGI (UACC-62 melanoma) | TGI (UO-31 renal) | TGI (SR leukemia) | TGI (MOLT-4 leukemia) | TGI (SF-295 CNS) | TGI (OVCAR-3 ovarian) | TGI (NCI-H460 lung) | TGI (DU-145 prostate) | TGI (SK-MEL-28 melanoma) | TGI (ACHN renal) | TGI (HT29 colon) | TGI (T-47D breast) | TGI (SW-620 colon) | TGI (A498 renal) | TGI (CCRF-CEM leukemia) | TGI (NCI/ADR-RES ovarian) | TGI (MDA-MB-435) | TGI (HCC-2998 colon) | TGI (SK-MEL-5 melanoma) | TGI (COLO 205 colon) | TGI (SN12C renal) | TGI (UACC-257 melanoma) | TGI (K-562 leukemia) | TGI (NCI-H522 lung) | TGI (SK-MEL-2 melanoma) | TGI (OVCAR-4 ovarian) | TGI (MCF7 breast) | TGI (EKVX NSCLC) | TGI (PC-3 prostate) | TGI (MALME-3M melanoma) | TGI (KM12 colon) | TGI (RPMI-8226 leukemia) | TGI (SNB-75 CNS) | TGI (TK-10 renal) | TGI (HS 578T breast) | TGI (OVCAR-5 ovarian) | TGI (SF-268 CNS) | TGI (M14 melanoma) | TGI (A549 NSCLC)
32.2 µM: TGI (786-0 renal)
44.5 µM: TGI (SF-539 CNS)
99.2 µM: TGI (NCI-H23 lung)
29.5 µM: TGI (MDA-MB-231 breast)
19.2 µM: TGI (HCT-116 colon)
